Like-named read-outs stand apart in the source and are kept apart here.
Assays:
[1] = Analgesic activity: acetic acid writhing method (mice); type: in vivo, ddy-strain male mice; conditions: Mus musculus, po
Method: (a) Acetic acid writhing method^1
A 0.7% acetic acid solution was injected intraperitoneally to ddy-strain male mice (20 to 25 g) in an amount of 0.1 ml per 10 g mouse body weight to cause a writhing syndrome typified by stretching of the hind legs. The inhibitory action of each test compound against said symptom was observed as a measure of the analgesic activity of the compound.
(1) Hendershot, L. C. and Forsaith, J.: J. Pharmacol. Exp. Ther., 125, 237 (1959).
(2) Litchfield, Jr., J. T. and Wilcoxon, F.: J. Pharmacol. Exp. Ther., 96, 99 (1949).

[2] = Analgesic activity: bradykinin-induced pain response (rats); type: in vivo, SD male rats; conditions: Rattus norvegicus, po, read-out: Analgesic activity ED50
Method: (B) Bradykinin-induced pain response^3,4
A polyethylene tube was inserted into a common right carotid artery of SD male rats (250 to 350 g) and 0.5 microngram per 0.1 ml of bradykinin was injected into the artery through said tube. Response induced by bradykinin such as flexin of the right forelimb, dextro-rotation of the head and rearing were considered as being indices of pain response, and the analgesic action of each test compound was determined by observing its inhibition of responses such symptoms.
(3) T. Abe, T. Kaneko and H. Takagi: Japan Pharm. Soc. Bul., 67, 9-14 (1971)
(4) G. F. Blane: J. Pharma. Pharmacol., 19, 367 (1967)

[3] = Antipyretic activity: dry yeast-induced fever (rats); type: in vivo, SD male rats; conditions: Rattus norvegicus, po, read-out: ED, effective dose for reducing the fever by more than 1° C. when the compound action is at the peak
Method: A 2% suspension of dry yeast was injected sub-Cutaneously to SD male rats of 250 to 300 g body weight in an amount of 2 ml/animal to cause a fever, and 4 hours later, the compounds of this invention and control drugs were administered orally. The rectal temerature of each rat was measured periodically, and the dosage of each compound required to reduce the fever by more than 1° C. at the peak of its activity was determined.

[4] = Antiphlogistic activity: carrageenin paw edema (rats); type: in vivo, Wistar rats; conditions: Rattus norvegicus, po, 3 hours
Method: (3) Antiphlogistic activity^5
Each test compound of this invention was administered orally to Wistar rats of about 300 g body weight, and 30 minutes later 0.05 ml of a 1% carrageenin solution was injected into a paw of each rat. After three hours, the paw volume was measured to determine the degree of edema formation and the 30% effective dose (ED30) was calculated from the inhibition rate relative to a control group.
(5) R. Vinegar et al: J. Pharmacol. Exp. Ther., 166, 96 (1969)

in vivo = conditions: po, p.o., read-out: Safety margin (LD50/ED50)
Method: Ten mice were used for each dose and morality was determined for 3 days after administration of each test compound of the invention. In the case of the rats, 5 rats were used for each dose and morality was determined 7 days after administrations.

SD male rats = conditions: p.o., control drugs, given in Japan National Formulary, 6th Ed. (1982); cited from earlier work
ddy male mice = conditions: p.o., control drugs, given in Japan National Formulary, 6th Ed. (1982); cited from earlier work
[5] = rats, p.o., bradykinin-induced pain

Row | SMILES | ED50 [1] [mg/kg] | ED50 [2, 5] [mg/kg] | minimal effective dose [3] [mg/kg] | ED30 [4] [mg/kg] | selectivity ratio (in vivo; mouse, mice) | selectivity ratio (in vivo; rat, rats) | ED50 [2] [mg/kg] | Acute toxicity LD50 (SD male rats) | Acute toxicity LD50 (ddy male mice) [mg/kg]
1 | Cn1cnc2c1c(=O)n(CCCN1CCN(c3ccc(Cl)c(Cl)c3)CC1)c(=O)n2C [Compound A', 1-(3-(4-(3,4-dichlorophenyl)piperazinyl-(1))-n-propyl)theobromine] | 7.2 | 40 | 40 | 25 |  |  |  |  | 
2 | Cn1c(=O)c2c(ncn2CCCCN2CCN(c3ccc(F)cc3)CC2)n(C)c1=O [Compound A] | 10 | 47 | 10 | 10 | 34 | 7.5 to 10.6 |  |  | 
3 | Cc1cccc(N2CCN(CCn3c(=O)c4c(ncn4C)n(C)c3=O)CC2)c1C [Compound B', 1-(2-(4-(2,3-dimethylphenyl)piperazinyl-(1))-ethyl)theobromine.2HCl] | 2.6 | 20 |  |  | 230 | ≥ 100 |  |  | 
4 | Cn1c(=O)c2c(ncn2CCCCCN2CCN(c3ccc(Cl)cc3)CC2)n(C)c1=O [Compound B] | 13.8 | 40 | 40 | 50 | 51 | 8.8 to 12.5 |  |  | 
5 | Cn1cnc2c1c(=O)n(CCCN1CCN(c3ccccc3Cl)CC1)c(=O)n2C [Compound C', 1-(3-(4-o-chlorophenylpiperazinyl-(1))-n-propyl)theobromine.2HCl] | 3.3 |  |  | 10 | 61 |  |  |  | 
6 | Cc1ccc(N2CCN(CCCn3cnc4c3c(=O)n(C)c(=O)n4C)CC2)cc1C [Compound C] | 13.3 | 57 | 10 |  | > 60 | 13.6 |  |  | 
7 | COc1ccccc1N1CCN(CCCCn2c(=O)c3c(ncn3C)n(C)c2=O)CC1 [Compound D', 1-(4-(4-o-methoxyphenylpiperazinyl-(1))-n-butyl)theobromine.2HCl] | 3.1 |  |  |  | 130 to 258 |  |  |  | 
8 | Cn1c(=O)c2c(ncn2CCCCN2CCN(c3ccc(Cl)cc3)CC2)n(C)c1=O [Compound D] | 26 |  | 40 | 25 | 22 | 7.6 | 68 |  | 
9 | Cn1cnc2c1c(=O)n(CCCCN1CCN(c3ccc(F)cc3)CC1)c(=O)n2C [Compound E', 1-(4-(4-p-fluorophenylpiperazinyl-(1))-n-butyl)theobromie.2HCl] | 7.8 |  |  | 25 | 26 |  |  |  | 
10 | Cn1cnc2c1c(=O)n(CCCCN1CCN(c3ccc(Cl)c(Cl)c3)CC1)c(=O)n2C [Compound F', 1-(4-(4-(3,4-dichlorophenyl)piperazinyl-(1))-n-butyl)theobromine.2HCl] | 7.8 |  |  |  | 51 to 103 |  |  |  | 
11 | Cn1c(=O)c2c(ncn2CCCCCN2CCN(c3cccc(C(F)(F)F)c3)CC2)n(C)c1=O [Compound F] | 27.1 | 63 | 10 | 25 | ≥ 30 | 10.5 |  |  | 
12 | Cc1cccc(N2CCN(CCCCCn3c(=O)c4c(ncn4C)n(C)c3=O)CC2)c1 [Compound G', 1-(5-(4-m-methylphenylpiperazinyl-(1))-n-pentyl)theobromine.2HCl] | 13.5 |  |  | 25 | 22 |  |  |  | 
13 | COc1cc(C)nc(-n2nc(C)cc2OC)n1 [Control drug I, 4-methoxy-2-(5-methoxy-3-methylpyrazol-1-yl)-6-methylpyrimidine, reference compound] | 240 | ≥ 160 | 40 |  | 4.3 | ≤ 3 |  | 526 mg/kg | 
14 | O=C(Cn1c(=O)sc2ccc(Cl)cc21)N1CCN(CCO)CC1 [Control drug II, 4-((5-chloro-2-oxo-3(2H)-benzothiazolyl)acetyl)-1-piperazineethanol, reference compound] | 66 | ≥ 160 | 40 |  | 8.5 | ≤ 23 |  | 3,600 mg/kg | 564
15 | OC(CN1CCCCC1)c1cc(-c2ccccc2)on1 (stereo not shown) [Control drug III, 3-(1-hydroxy-2-piperadinoethyl)-5-phenylisoxazole, reference compound] | 120 | 160 | 160 |  | 5.1 | 12 |  | 1,978 mg/kg | 612

From patent US4543254A, “Antiphlogistic/antipyretic/analgesic agents containing theobromine or theophylline derivatives as active ingredient” (Eisai Co., Ltd., priority 1982, dated 1985)
